According to patent US11160280B2, “Pesticial compounds” (BASF SE, priority 2017, dated 2021):

Key:
Format in all cases: in vivo
[1] = system: Diamond Back Moth (Plutella xylostella); assay: Action on diamond back moth (Plutella xylostella), cabbage leaf dip; settings: foliar, 3rd instar larvae on dipped cabbage leaves, mortality 72 hours after treatment, read-out: mortality in comparison with untreated controls
Method: Example B6: Action on Diamond Back Moth (Plutella xylostella)
The active compound is dissolved at the desired concentration in a mixture of 1:1 (vol:vol) distilled water:acetone. Surfactant (Kinetic® HV) is added at a rate of 0.01% (vol/vol). The test solution is prepared at the day of use.
Leaves of cabbage were dipped in test solution and air-dried. Treated leaves were placed in petri dishes lined with moist filter paper and inoculated with ten 3rd instar larvae. Mortality was recorded 72 hours after treatment. Feeding damages were also recorded using a scale of 0-100%.

[2] = system: boll weevil (Anthonomus grandis); assay: Action on boll weevil (Anthonomus grandis), eggs on insect diet in microtiter plates; settings: 120 h, egg and larval mortality after 5 days, read-out: mortality in comparison with untreated controls
Method: Example B3: Action on Boll Weevil (Anthonomus grandis)
For evaluating control of boll weevil (Anthonomus grandis) the test unit consisted of 96-well-microtiter plates containing an insect diet and 5-10 A. grandis eggs.
The compounds were formulated using a solution containing 75% v/v water and 25% v/v DMSO. Different concentrations of formulated compounds were sprayed onto the insect diet at 5 μl, using a custom built micro atomizer, at two replications.
After application, microtiter plates were incubated at about 25±1° C. and about 75±5% relative humidity for 5 days. Egg and larval mortality was then visually assessed.

[3] = system: yellow fever mosquito (Aedes aegypti); assay: whole plant or invertebrate; settings: 48 h, larval mortality visually assessed after 2 days, read-out: mortality in comparison with untreated controls
Method: Example B1: Action on Yellow Fever Mosquito (Aedes aegypti)
For evaluating control of yellow fever mosquito (Aedes aegypti) the test unit consisted of 96-well-microtiter plates containing 200 μl of tap water per well and 5-15 freshly hatched A. aegypti larvae.
The active compounds were formulated using a solution containing 75% (v/v) water and 25% (v/v) DMSO. Different concentrations of formulated compounds or mixtures were sprayed onto the insect diet at 2.5 μl, using a custom built micro atomizer, at two replications.
After application, microtiter plates were incubated at 28+1° C., 80+5% RH for 2 days. Larval mortality was then visually assessed.

[4] = system: tobacco budworm (Heliothis virescens); assay: Action on tobacco budworm (Heliothis virescens), eggs on insect diet in microtiter plates; settings: 120 h, egg and larval mortality after 5 days, read-out: mortality in comparison with untreated controls
Method: Example B5: Action on Tobacco Budworm (Heliothis virescens)
For evaluating control of tobacco budworm (Heliothis virescens) the test unit consisted of 96-well-microtiter plates containing an insect diet and 15-25 H. virescens eggs.
The compounds were formulated using a solution containing 75% v/v water and 25% v/v DMSO. Different concentrations of formulated compounds were sprayed onto the insect diet at 10 μl, using a custom built micro atomizer, at two replications.
After application, microtiter plates were incubated at about 28±1° C. and about 80±5% relative humidity for 5 days. Egg and larval mortality was then visually assessed.

[5] = system: Southern Armyworm (Spodoptera eridania), 2nd Instar Larvae; assay: Action on southern armyworm (Spodoptera eridania), 2nd instar larvae on sprayed lima bean plants; settings: 96 h, 2nd instar larvae on lima bean plants, 4 days after treatment, read-out: mortality in comparison with untreated controls
Method: Example B7: Action on Southern Armyworm (Spodoptera eridania), 2nd Instar Larvae
The active compounds were formulated by a Tecan liquid handler in 100% cyclohexanone as a 10,000 ppm solution supplied in tubes. The 10,000 ppm solution was serially diluted in 100% cyclohexanone to make interim solutions. These served as stock solutions for which final dilutions were made by the Tecan in 50% acetone:50% water (v/v) into 10 or 20 ml glass vials. A nonionic surfactant (Kinetic®) was included in the solution at a volume of 0.01% (v/v). The vials were then inserted into an automated electrostatic sprayer equipped with an atomizing nozzle for application to plants/insects.
Lima bean plants (variety Sieva) were grown 2 plants to a pot and selected for treatment at the 1st true leaf stage. Test solutions were sprayed onto the foliage by an automated electrostatic plant sprayer equipped with an atomizing spray nozzle. The plants were dried in the sprayer fume hood and then removed from the sprayer. Each pot was placed into perforated plastic bags with a zip closure. About 10 to 11 armyworm larvae were placed into the bag and the bags zipped closed. Test plants were maintained in a growth room at about 25° C. and about 20-40% relative humidity for 4 days, avoiding direct exposure to fluorescent light (24 hour photoperiod) to prevent trapping of heat inside the bags. Mortality and reduced feeding were assessed 4 days after treatment, compared to untreated control plants.

CC(C)c1ccccc1N1C(=O)CS/C1=N\N=C\c1ccc2c(COc3ccc(OC(F)(F)F)cc3)noc2c1 [Example C-25, (2Z)-3-(2-isopropylphenyl)-2-[(E)-[3-[[4-(trifluoromethoxy)phenoxy]methyl]-1,2-benzoxazol-6-yl]methylenehydrazono]thiazolidin-4-one]
≥ 75%: mortality at 500 ppm [1] | mortality at 800 ppm [2] | mortality at 800 ppm [3] | mortality at 800 ppm [4]

CC(C)c1ccccc1NC(=S)NN=Cc1cc(F)c2c(C(=O)Nc3ccc(OC(F)(F)F)cc3)nn(C)c2c1 [Example C-17, 4-fluoro-6-[[(2-isopropylphenyl)carbamothioylhydrazono]methyl]—1-methyl-N-[4-(trifluoromethoxy)phenyl]indazole-3-carboxamide]
≥ 75%: mortality at 300 ppm [5] | mortality at 800 ppm [2] | mortality at 800 ppm [4]

CC(C)c1ccccc1NC(=S)NN=Cc1cc(F)c2c(C(=O)N(C)c3ccc(OC(F)(F)F)cc3)nn(C)c2c1 [Example C-18, 4-fluoro-6-[[(2-isopropylphenyl)carbamothioylhydrazono]methyl]-N,1-dimethyl-N-[4-(trifluoromethoxy)phenyl]indazole-3-carboxamide]
≥ 75%: mortality at 500 ppm [1] | mortality at 300 ppm [5] | mortality at 800 ppm [2] | mortality at 800 ppm [4]

CC(C)c1ccccc1N1C(=O)CS/C1=N\N=C\c1ccc2c(COc3ccc(OC(F)(F)F)cc3)nsc2c1 [Example C-23, (2Z)-3-(2-isopropylphenyl)-2-[(E)-[3-[[4-(trifluoromethoxy)phenoxy]methyl]-1,2-benzothiazol-6-yl]methylenehydrazono]thiazolidin-4-one]
≥ 75%: mortality at 500 ppm [1] | mortality at 300 ppm [5] | mortality at 800 ppm [2] | mortality at 800 ppm [4]

CC(C)c1ccccc1N1C(=O)CS/C1=N\N=C\c1ccc2c(C(=O)Nc3ccc(OC(F)(F)F)cc3)nn(C)c2c1 [Example C-8, 6-[(E)-[(Z)-[3-(2-isopropylphenyl)-4-oxo-thiazolidin-2-ylidene]hydrazono]methyl]-1-methyl-N-[4-(trifluoromethoxy)phenyl]indazole-3-carboxamide]
≥ 75%: mortality at 500 ppm [1] | mortality at 300 ppm [5] | mortality at 800 ppm [2] | mortality at 800 ppm [3] | mortality at 800 ppm [4]

CO[C@@H]1[C@@H](OC)[C@H](C)O[C@@H](OC(=O)Nc2ccc3c(NC(=O)c4ccc(OC(F)(F)F)cc4)nn(C)c3c2)[C@@H]1OC [Example C-5, [(2S,3R,4R,5S,6S)-3,4,5-trimethoxy-6-methyl-tetrahydropyran-2-yl] N-[1-methyl-3-[[4-(trifluoromethoxy)benzoyl]amino]indazol-6-yl]carbamate]
≥ 75%: mortality at 800 ppm [2] | mortality at 800 ppm [3]

CC(C)c1ccccc1NC(=S)N/N=C/c1ccc2c(COc3ccc(OC(F)(F)F)cc3)noc2c1 [Example C-24, 1-(2-isopropylphenyl)-3-[(E)-[3-[[4-(trifluoromethoxy)phenoxy]methyl]-1,2-benzoxazol-6-yl]methyleneamino]thiourea]
≥ 75%: mortality at 500 ppm [1] | mortality at 800 ppm [2] | mortality at 800 ppm [4]

CC(C)c1ccccc1NC(=S)N/N=C/c1ccc2c(COc3ccc(OC(F)(F)F)cc3)nsc2c1 [Example C-22, 1-(2-isopropylphenyl)-3-[(E)-[3-[[4-(trifluoromethoxy)phenoxy]methyl]-1,2-benzothiazol-6-yl]methyleneamino]thiourea]
≥ 75%: mortality at 500 ppm [1] | mortality at 300 ppm [5] | mortality at 800 ppm [2] | mortality at 800 ppm [4]
